Laboratory results: patent US20250382344A1, “Soluble GLP1/GIP/NPY2 Receptor Triple Agonists” (Boehringer Ingelheim International GmH, priority 2024, published 2025)
Where two headings read alike, the source gives them in different places.

Legend:
hGIPR = molecular target: T1, hGIPR (Homo sapiens, UniProt P48546); experiment: hGIPR CreLuc assay in 0.5% and 100% plasma (CHO CRE-luciferase reporter cells); type: cell-based; conditions: 0.5% human plasma
T1 construct: expressed in transfected cells; host or cells: CHO CRE-luciferase reporter cells
T1 sequence (P48546 22-466): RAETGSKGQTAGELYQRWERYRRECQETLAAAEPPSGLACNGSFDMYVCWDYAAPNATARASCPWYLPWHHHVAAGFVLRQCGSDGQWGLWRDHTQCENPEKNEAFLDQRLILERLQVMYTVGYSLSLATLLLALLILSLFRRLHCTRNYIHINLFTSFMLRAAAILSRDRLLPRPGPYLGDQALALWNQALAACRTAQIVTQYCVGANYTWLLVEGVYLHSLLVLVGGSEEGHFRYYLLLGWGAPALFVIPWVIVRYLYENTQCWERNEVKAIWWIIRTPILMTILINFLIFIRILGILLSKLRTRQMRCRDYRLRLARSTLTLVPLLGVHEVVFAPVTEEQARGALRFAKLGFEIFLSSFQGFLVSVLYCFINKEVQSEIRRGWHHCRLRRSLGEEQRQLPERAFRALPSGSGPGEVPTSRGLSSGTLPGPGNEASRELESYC

[1] = Solubility in 0.1 M phosphate buffer at pH 7; type: physicochemical; conditions: 0.1 M phosphate buffer at pH 7, 10 mg/mL final peptide concentration, shaking 2 hours at room temperature, peptides as TFA-salts; measured sample pH 6.5-7.0

| Compound | EC50 (hGIPR; read-out: hGIPR 0.5% hP) [nM] | solubility at 2 h [1] [µg/mL] | EC50 (hGIPR; hGIPR 0.5% hP (nM)) [nM] |
| --- | --- | --- | --- |
| CC[C@H](C)[C@H](NC(=O)[C@H](CC(C)C)NC(=O)[C@H](Cc1c[nH]cn1)NC(=O)[C@H](CCCNC(=N)N)NC(=O)[C@@H](NC(=O)[C@H](Cc1ccccc1)NC(=O)[C@H](C)NC(=O)C(C)(C)NC(=O)[C@H](CCC(N)=O)NC(=O)[C@H](C)NC(=O)[C@H](CCC(N)=O)NC(=O)[C@H](CCCCN)NC(=O)[C@H](CCC(=O)O)NC(=O)[C@H](CC(C)C)NC(=O)C(C)(C)NC(=O)[C@@H](NC(=O)[C@H](CO)NC(=O)[C@H](Cc1ccc(O)cc1)NC(=O)[C@H](CC(=O)O)NC(=O)[C@H](CO)NC(=O)[C@@H](NC(=O)[C@H](Cc1ccccc1)NC(=O)[C@@H](NC(=O)CNC(=O)[C@H](CCC(=O)O)NC(=O)C(C)(C)NC(=O)[C@@H](N)Cc1ccc(O)cc1)[C@@H](C)O)[C@@H](C)O)[C@@H](C)CC)C(C)C)C(=O)N[C@@H](CC(N)=O)C(=O)N[C@@H](CCCCNC(=O)[C@@H](N)CCCCNC(=O)CC[C@H](NC(=O)CC[C@H](NC(=O)CC[C@H](NC(=O)CC[C@H](NC(=O)CC[C@H](NC(=O)CC[C@H](NC(=O)CCCCCCCCCCCCCCCCCCC(=O)O)C(=O)O)C(=O)O)C(=O)O)C(=O)O)C(=O)O)C(=O)O)C(=O)N[C@@H](CC(C)C)C(=O)N[C@H](C(=O)N[C@@H](CCCNC(=N)N)C(=O)N[C@@H](CCC(N)=O)C(=O)N[C@@H](CCCNC(=N)N)C(=O)N[C@@H](Cc1ccc(O)cc1)C(N)=O)[C@@H](C)O [Compound 27, Y-Aib-E-G-T-F-T-S-D-Y-S-I-Aib-L-E-K-Q-A-Q-Aib-A-F-V-R-H-L-I-N-K(1,3)-L-T-R-Q-R-Y-NH2.C20DA-gGlu-gGlu-gGlu-gGlu-gGlu-gGlu-eLys(1,2)] | 0.6 | 10000 |  |
| CC[C@H](C)[C@H](NC(=O)[C@H](CC(C)C)NC(=O)[C@H](Cc1c[nH]cn1)NC(=O)[C@H](CCCNC(=N)N)NC(=O)[C@@H](NC(=O)[C@H](Cc1ccccc1)NC(=O)[C@H](C)NC(=O)C(C)(C)NC(=O)[C@H](CCC(N)=O)NC(=O)[C@H](C)NC(=O)[C@H](CCC(N)=O)NC(=O)[C@H](CCCCN)NC(=O)[C@H](CCC(=O)O)NC(=O)[C@H](CC(C)C)NC(=O)C(C)(C)NC(=O)[C@@H](NC(=O)[C@H](CO)NC(=O)[C@H](Cc1ccc(O)cc1)NC(=O)[C@H](CC(=O)O)NC(=O)[C@H](CO)NC(=O)[C@@H](NC(=O)[C@H](Cc1ccccc1)NC(=O)[C@@H](NC(=O)CNC(=O)[C@H](CCC(=O)O)NC(=O)C(C)(C)NC(=O)[C@@H](N)Cc1ccc(O)cc1)[C@@H](C)O)[C@@H](C)O)[C@@H](C)CC)C(C)C)C(=O)N[C@@H](CC(N)=O)C(=O)N[C@@H](CCCCNC(=O)[C@@H](N)CCCCNC(=O)CC[C@H](NC(=O)CC[C@H](NC(=O)CC[C@H](NC(=O)CC[C@H](NC(=O)CC[C@H](NC(=O)CC[C@H](NC(=O)CC[C@H](NC(=O)CCCCCCCCCCCCCCCCCCC(=O)O)C(=O)O)C(=O)O)C(=O)O)C(=O)O)C(=O)O)C(=O)O)C(=O)O)C(=O)NC(C)(C)C(=O)N[C@H](C(=O)N[C@@H](CCCNC(=N)N)C(=O)N[C@@H](CCC(N)=O)C(=O)N[C@@H](CCCNC(=N)N)C(=O)N[C@@H](Cc1ccc(O)cc1)C(N)=O)[C@@H](C)O [Compound 35, Y-Aib-E-G-T-F-T-S-D-Y-S-I-Aib-L-E-K-Q-A-Q-Aib-A-F-V-R-H-L-I-N-K(1,3)-Aib-T-R-Q-R-Y-NH2.C20DA-gGlu-gGlu-gGlu-gGlu-gGlu-gGlu-gGlu-eLys(1,2)] | 0.7 | 5200 |  |
| CC[C@H](C)[C@H](NC(=O)[C@H](CC(C)C)NC(=O)[C@H](Cc1c[nH]cn1)NC(=O)[C@H](CCCNC(=N)N)NC(=O)[C@@H](NC(=O)[C@H](Cc1ccccc1)NC(=O)[C@H](C)NC(=O)C(C)(C)NC(=O)[C@H](CCC(N)=O)NC(=O)[C@H](C)NC(=O)[C@H](CCC(N)=O)NC(=O)[C@H](CCCCN)NC(=O)[C@H](CCC(=O)O)NC(=O)[C@H](CC(C)C)NC(=O)C(C)(C)NC(=O)[C@@H](NC(=O)[C@H](CO)NC(=O)[C@H](Cc1ccc(O)cc1)NC(=O)[C@H](CC(=O)O)NC(=O)[C@H](CO)NC(=O)[C@@H](NC(=O)[C@H](Cc1ccccc1)NC(=O)[C@@H](NC(=O)CNC(=O)[C@H](CCC(=O)O)NC(=O)C(C)(C)NC(=O)[C@@H](N)Cc1ccc(O)cc1)[C@@H](C)O)[C@@H](C)O)[C@@H](C)CC)C(C)C)C(=O)N[C@@H](CC(N)=O)C(=O)N[C@@H](CCCCNC(=O)[C@@H](N)CCNC(=O)CC[C@H](NC(=O)CC[C@H](NC(=O)CC[C@H](NC(=O)CC[C@H](NC(=O)CC[C@H](NC(=O)CC[C@H](NC(=O)CCCCCCCCCCCCCCCCCCC(=O)O)C(=O)O)C(=O)O)C(=O)O)C(=O)O)C(=O)O)C(=O)O)C(=O)NC(C)(C)C(=O)N[C@H](C(=O)N[C@@H](CCCNC(=N)N)C(=O)N[C@@H](CCC(N)=O)C(=O)N[C@@H](CCCNC(=N)N)C(=O)N[C@@H](Cc1ccc(O)cc1)C(N)=O)[C@@H](C)O [Compound 46, Y-Aib-E-G-T-F-T-S-D-Y-S-I-Aib-L-E-K-Q-A-Q-Aib-A-F-V-R-H-L-I-N-K(1,3)-Aib-T-R-Q-R-Y-NH2.C20DA-gGlu-gGlu-gGlu-gGlu-gGlu-gGlu-gDab(1,2)] | 0.8 | 4200 |  |
| CC[C@H](C)[C@H](NC(=O)[C@H](CC(C)C)NC(=O)[C@H](Cc1c[nH]cn1)NC(=O)[C@H](CCCNC(=N)N)NC(=O)[C@@H](NC(=O)[C@H](Cc1ccccc1)NC(=O)[C@H](C)NC(=O)C(C)(C)NC(=O)[C@H](CCC(N)=O)NC(=O)[C@H](C)NC(=O)[C@H](CCC(N)=O)NC(=O)[C@H](CCCCN)NC(=O)[C@H](CCC(=O)O)NC(=O)[C@H](CC(C)C)NC(=O)C(C)(C)NC(=O)[C@@H](NC(=O)[C@H](CO)NC(=O)[C@H](CC(C)C)NC(=O)[C@H](CC(=O)O)NC(=O)[C@H](CO)NC(=O)[C@@H](NC(=O)[C@H](Cc1ccccc1)NC(=O)[C@@H](NC(=O)CNC(=O)[C@H](CCC(=O)O)NC(=O)C(C)(C)NC(=O)[C@@H](N)Cc1ccc(O)cc1)[C@@H](C)O)[C@@H](C)O)[C@@H](C)CC)C(C)C)C(=O)N[C@@H](CC(N)=O)C(=O)N[C@@H](CCCCNC(=O)CC[C@H](NC(=O)CC[C@H](NC(=O)CC[C@H](NC(=O)CC[C@H](NC(=O)CC[C@H](NC(=O)CC[C@H](NC(=O)CCCCCCCCCCCCCCCCCCC(=O)O)C(=O)O)C(=O)O)C(=O)O)C(=O)O)C(=O)O)C(=O)O)C(=O)NC(C)(C)C(=O)N[C@H](C(=O)N[C@@H](CCCNC(=N)N)C(=O)N[C@@H](CCC(N)=O)C(=O)N[C@@H](CCCNC(=N)N)C(=O)N[C@@H](Cc1ccc(O)cc1)C(N)=O)[C@@H](C)O [Compound 51, Y-Aib-E-G-T-F-T-S-D-L-S-I-Aib-L-E-K-Q-A-Q-Aib-A-F-V-R-H-L-I-N-K(1,3)-Aib-T-R-Q-R-Y-NH2.C20DA-gGlu-gGlu-gGlu-gGlu-gGlu-gGlu(1,2)] |  | 9300 | 0.5 |
| CC[C@H](C)[C@H](NC(=O)[C@H](CC(C)C)NC(=O)[C@H](Cc1c[nH]cn1)NC(=O)[C@H](CCCNC(=N)N)NC(=O)[C@@H](NC(=O)[C@H](Cc1ccccc1)NC(=O)[C@H](C)NC(=O)C(C)(C)NC(=O)[C@H](CCC(N)=O)NC(=O)[C@H](C)NC(=O)[C@H](CCC(N)=O)NC(=O)[C@H](CCCCN)NC(=O)[C@H](CCC(=O)O)NC(=O)[C@H](CC(C)C)NC(=O)C(C)(C)NC(=O)[C@@H](NC(=O)[C@H](CO)NC(=O)[C@H](Cc1ccc(O)cc1)NC(=O)[C@H](CC(=O)O)NC(=O)[C@H](CO)NC(=O)[C@@H](NC(=O)[C@H](Cc1ccccc1)NC(=O)[C@@H](NC(=O)CNC(=O)[C@H](CCC(=O)O)NC(=O)C(C)(C)NC(=O)[C@@H](N)Cc1ccc(O)cc1)[C@@H](C)O)[C@@H](C)O)[C@@H](C)CC)C(C)C)C(=O)N[C@@H](CC(N)=O)C(=O)N[C@@H](CCCCNC(=O)[C@@H](N)CCCCNC(=O)CC[C@H](NC(=O)CC[C@H](NC(=O)CC[C@H](NC(=O)CC[C@H](NC(=O)CC[C@H](NC(=O)CCCCCCCCCCCCCCCCCCC(=O)O)C(=O)O)C(=O)O)C(=O)O)C(=O)O)C(=O)O)C(=O)NC(C)(C)C(=O)N[C@H](C(=O)N[C@@H](CCCNC(=N)N)C(=O)N[C@@H](CCC(N)=O)C(=O)N[C@@H](CCCNC(=N)N)C(=O)N[C@@H](Cc1ccc(O)cc1)C(N)=O)[C@@H](C)O [Compound 59, Y-Aib-E-G-T-F-T-S-D-Y-S-I-Aib-L-E-K-Q-A-Q-Aib-A-F-V-R-H-L-I-N-K(1,3)-Aib-T-R-Q-R-Y-NH2.C20DA-gGlu-gGlu-gGlu-gGlu-gGlu-eLys(1,2)] | 0.4 | 2100 |  |
